Measurements published in ChEMBL document CHEMBL3286248, “Easily accessible polycyclic amines that inhibit the wild-type and amantadine-resistant mutants of the M2 channel of influenza A virus” (J Med Chem, 2014).
Where a name gives a salt, the structure may show the parent alone. Active and inactive are the calls of the source. The calls are words filed in the database; no cut-off is given here.

Assays:
[1] = system: MDCK; test: Antiviral activity against Influenza A virus (A/HK/7/87(H3N2)) harboring wild type M2 channel infected in MDCK cells assessed as reduction in plaque size at 0.5 uM after 72 hrs by crystal violet staining; type: functional, cell-based; details: Influenza A virus (A/Hong Kong/7/1987(H3N2))
[2] = system: Influenza A virus; details: mdck
[3] = system: Influenza A virus; details: mdck; remark: listed apart in the source
[4] = system: MDCK; test: Antiviral activity against Influenza A virus (A/HK/7/87(H3N2)) harboring wild type M2 channel infected in MDCK cells assessed as reduction in plaque number at 0.5 uM after 72 hrs by crystal violet staining; type: functional, cell-based; details: Influenza A virus (A/Hong Kong/7/1987(H3N2))
[5] = system: MDCK; type: functional, cell-based; details: Influenza A virus (A/Hong Kong/7/1987(H3N2)), 0.5 to 2 uM
[6] = system: Matrix protein 2 (Influenza A virus (A/Udorn/307/1972(H3N2))), P0DOF8 [V27A]; details: Influenza A virus (A/udorn/1972(H3N2))

| SMILES | Activity [1] | EC50 [2] | EC50 [3] | Activity [4] | inhibition [5] | inhibition [6] |
| --- | --- | --- | --- | --- | --- | --- |
| N=C(N)N1CC2C3CCC(C4CCC43)C2C1 (stereo unspecified) | Active | > 100 µM | > 100 µM | Active | – | – |
| C1=CC2C1C1C=CC2C2CNCC12 (stereo unspecified) | – | < 0.8 µM | 1.3 µM | – | Active | – |
| C1=CC2C3CC3C1C1CN(C3CCNCC3)CC21 (stereo unspecified) | – | < 0.8 µM | ≤ 0.8 µM | – | – | inactive |
| N=C(N)N1CC2C3C=CC(C4C=CC43)C2C1 (stereo unspecified) | – | > 100 µM | > 100 µM | – | Active | – |
| N=C(N)N1CC2C3CCC(C4CC34)C2C1 (stereo unspecified) | – | > 100 µM | > 100 µM | – | – | – |
| N=C(N)N1CC2C3C=CC(C4CC34)C2C1 (stereo unspecified) | – | > 100 µM | > 100 µM | – | – | – |
| CC12CC34CNCC35CC1(C)C(C)(C5)C2(C)C4 (stereo unspecified) | – | 3 µM | 1.8 µM | – | Active | – |
| C1CC2C1C1CCC2C2CNCC12 (stereo unspecified) | Active | > 100 µM | > 100 µM | Active | – | – |
| C1=CC2C3CNCC3C1C1CC21 (stereo unspecified) | – | > 100 µM | > 100 µM | – | – | – |
| C1CC2C3CNCC3C1C1CC21 (stereo unspecified) | – | > 100 µM | > 100 µM | – | – | – |
| C1CC(N2CC3C4CCC(C5CC45)C3C2)CCN1 (stereo unspecified) | – | > 100 µM | > 100 µM | – | – | inactive |
| CC(N)C12CC3CC(CC(C3)C1)C2 (stereo unspecified) [RIMANTADINE HYDROCHLORIDE] | – | 5.1 µM | 7.6 µM | – | – | – |
| CC12CC34CN(C(=N)N)CC35CC1(C)C(C)(C5)C2(C)C4 (stereo unspecified) | – | > 100 µM | > 100 µM | – | – | – |
| NC12CC3CC(CC(C3)C1)C2 [AMANTADINE] | – | – | 30 µM | – | – | – |
